Measured values: article PMC11676693, “Population Pharmacokinetic and Pharmacodynamic Study of Palbociclib in Children and Young Adults with Recurrent, Progressive, or Refractory Brain Tumors” (Pharmaceutics, 2024)
pIC50: −log10 of the molar value. Like-named read-outs stand apart in the source and are kept apart here.

How the values were obtained:
[1] = in vivo
Experimental: The patients included in this palbociclib population pharmacokinetic/pharmacodynamic analysis were treated in the phase I clinical trial PBTC-042 (NCT02255461), which evaluated single-agent oral palbociclib therapy in children and young adults with recurrent, progressive, or refractory brain tumors. Details of this clinical trial have been reported elsewhere. In adults treated with palbociclib, myelosuppression has been the main dose-limiting toxicity (DLT) reported, and the toxicity is greater in more heavily pretreated patients. Thus, patients in this pediatric trial were divided into two strata: stratum I included patients who were not heavily pretreated, while stratum II included heavily pretreated patients. The starting dosage for stratum I was 50 mg/m^2, with planned dose escalations to 75 mg/m^2 and 95 mg/m^2. The planned starting dosage for stratum II was one dosage level below the MTD for stratum I. The Institutional Review Board approved this trial and written informed consent was obtained from patients, parents, or legal guardians before the onset of any study procedures. Assent was obtained from patients as appropriate based on local institutional guidelines.
Pharmacokinetic studies of oral palbociclib (PD-0332991) were performed on course 1, day 1 and day 21 to evaluate the population pharmacokinetics of palbociclib. On day 2 of course 1, the palbociclib dose was held. On day 1 of course 1, palbociclib single-dose serial blood samples were drawn pre-dose and 0.5, 1, 2, 4, 8 (±1), 24 (±4), and 48 (±4) hours (immediately prior to the day 3 dose) after the oral dose. On day 21 of course 1, palbociclib steady-state serial blood samples were collected pre-dose and 1, 2, 4, 8 (±1), and 24 (±4) hours (immediately prior to the day 22 dose) after the dose.
At each time point, whole blood (2 mL) was collected in K2EDTA tubes, spun to plasma within one hour of collection, and stored at −20 °C until analysis. Palbociclib plasma concentrations were measured using a validated liquid chromatography–mass spectrometric assay method with a lower limit of quantitation (LLOQ) of 1 ng/mL [14].
Palbociclib serum concentration–time data from course 1, day 1 and day 21 were analyzed using nonlinear mixed-effects modeling implemented in Monolix software version 2023R1 (Lixoft, Antony, France) using the Stochastic Approximation Expectation Maximization (SAEM) algorithm. Inter-individual and inter-occasion variabilities were assumed to be log-normally distributed. A proportional residual error model was used to quantify the unexplained variability of the model. Error terms were assumed to be normally distributed. A one-compartment model with first-order absorption, the absorption lag time, and first-order elimination was used. Specifically, the PK parameters estimated included the absorption lag time (Tlag), absorption rate constant (ka), apparent oral volume (V/F), and apparent oral clearance (CL/F), where F was the bioavailability, which was not identifiable given only oral dosing was used. The inter-individual variability was estimated for all parameters. Additionally, the inter-occasion variability was estimated for the CL/F. The palbociclib dosage (i.e., the palbociclib dosage normalized to the patient body surface area (BSA)) was used as the model input. Data below the limit of quantitation (BLQ) were censored according to the Beal method M3 [17], as implemented in Monolix. […]

[2] = tested on: proliferating neutrophils in the bone marrow compartment (ANC); assay: Population pharmacodynamic model of ANC (neutrophil dynamics); assay type: in vivo, children and young adults
Experimental: (§1) A complete blood count (CBC) with differential was performed pre-therapy, weekly during course 1, and then weekly during courses 2 to 26. The CBC provided platelet and absolute neutrophil counts (ANCs).
(§2) The model describing the ANC and platelet dynamics has been previously described. The model for the ANC consisted of a bone marrow compartment with proliferating neutrophils, three transient compartments that represent the maturation process of the neutrophils from blasts to circulating neutrophils, and a circulating neutrophil compartment. The model included the negative feedback effects of endogenous G-CSF, which affected the growth rate of proliferating cells in a manner inversely proportional to the concentration of circulating neutrophils. We assumed that palbociclib only affected the proliferating neutrophils in the bone marrow compartment. We used a similar structural model for platelet dynamics. The model describing the neutrophil dynamics is shown in Equations (1)–(5) and Figure S1. (1) NPBM/dt=kinKM/KM+NcircIC50n/IC50n+Cpalblociclibn−kbpNPBM (2) dNT1/dt=kbpNPBM−NT1 (3) dNT2/dt=kbpNT1−NT2 (4) dNT3/dt=kbpNT2−NT3 (5) dNcirc/dt=kpbNT3−koutNcirc
The model parameters were as follows: NPBM: proliferating bone marrow stem cells; NT1, NT2, and NT3: transient compartments describing the maturation phases of the neutrophils; Ncirc: circulating neutrophils. Note that we were only able to observe this compartment. The model parameters were defined as follows: kin (1/days): the stem cell proliferation rate; kbp (1/days): the transition rate between transient compartments (the mean transition time from the bone marrow to the circulating neutrophils is 4/kbp); kout (1/days): the elimination rate of circulating neutrophils; KM (10^3/µL): the half-saturation effect of the G-CSF negative feedback; IC50 (nM) and n; the half-saturation effect and Hill coefficient of the palbociclib effects on the bone marrow; and Cpalbociclib (nM): the concentration of palbociclib in the plasma. Prior to treatment, the system was assumed to be steady-state, where Ncirc0 was the steady-state circulating neutrophil level. The following relationship between the model parameters was needed for the system to maintain steady state prior to treatment (Equation (6)). (6) KM=kbp/kin−kbpNcirc0
For this relationship to be positive, kin > kpb. To ensure this requirement, we defined kpb = fkbp·kin where fkbp ∈ [0, 1] and estimated fkbp. In addition, the initial conditions for the system at steady state (i.e., the steady-state solution to the system in the absence of the drug) are (Equation (7)) (7) kout/kbpNcirc0, kout/kbpNcirc0, kout/kbpNcirc0, kout/kbpNcirc0, Ncirc0
The parameters for the pharmacodynamic model were estimated using nonlinear mixed-effects modeling with the SAEM algorithm as implemented in the Monolix® software version 2023R1 (Lixoft, Antony, France). The palbociclib pharmacokinetics were fixed to each individual’s post hoc estimated parameters (as determined above). The inter-individual and inter-occasion variability were assumed to be log-normally distributed for all parameters except fkbp, which was assumed to be a logit distribution, so its value will be between 0 and 1. A proportional residual error model was used to quantify the unexplained variability of the model. Error terms were assumed to be normally distributed.

[3] = tested on: platelets (PLT); assay: Population pharmacodynamic model of platelet (PLT) dynamics; assay type: in vivo, children and young adults
Experimental: as §1
as §2, with “The model describing the neutrophil dynamics is shown in Equations (1)–(5) and Figure S1. (1) NPBM/dt=kinKM/KM+NcircIC50n/IC50n+Cpalblociclibn−kbpNPBM (2) dNT1/dt=kbpNPBM−NT1 (3) dNT2/dt=kbpNT1−NT2 (4) dNT3/dt=kbpNT2−NT3 (5) dNcirc/dt=kpbNT3−koutNcirc” left out
The parameters for the pharmacodynamic model were estimated using nonlinear mixed-effects modeling with the SAEM algorithm as implemented in the Monolix® software version 2023R1 (Lixoft, Antony, France). The palbociclib pharmacokinetics were fixed to each individual’s post hoc estimated parameters (as determined above). […] A proportional residual error model was used to quantify the unexplained variability of the model. […]

[4] = set-up: method as in PMID 37553297; conditions: mean (range), 12 children, cited from earlier work
[5] = cited from earlier work
[6] = median (5th–95th percentile), individual model estimates, first two courses

SMILES: CC(=O)c1c(C)c2cnc(Nc3ccc(N4CCNCC4)cn3)nc2n(C2CCCC2)c1=O [palbociclib]
- Inter-patient variability (IIV) of CL/F ([1]; human): 0.24
- absorption rate constant ([1]; human): 0.48 h⁻¹
- decrease of inter-patient variability of CL/F with inclusion of AST ([1]; human): 10%
- fold lower apparent oral clearance ([1]; human, po): 2 fold
- effect of concomitant drugs as covariates on CL/F [1]: None of the concomitant drugs considered as covariates were significant
- pIC50 ([2]; Homo sapiens, Neutrophil, read-out: IC50 (half-saturation effect of palbociclib on the bone marrow)): 6.42
- cumulative nature of decreases in ANCs ([2]; courses 3 and 4 predicted from courses 1 and 2): not cumulative
- time individuals had grade 3 or greater neutropenia ([2]; median (5th–95th percentile) (abstract)): 4 (0, 21) days
- ANC nadir ([2]; median (5th–95th percentile), first two courses): 1.0 (0.4, 3.3) × 10^3/µL
- time below an ANC of 0.5 × 10^3/µL (grade 4 neutropenia) [2, 6]: 0 (0, 11) days/course
- time below an ANC of 1.0 × 10^3/µL (grade 3 neutropenia) [2, 6]: 4 (0, 21) days/course
- time below an ANC of 1.5 × 10^3/µL (grade 2 neutropenia) [2, 6]: 15 (0, 35) days/course
- pIC50 ([3]; Homo sapiens, Platelet, read-out: IC50 (half-saturation effect of palbociclib on the bone marrow)): 6.25
- individuals with grade 1 (<100 ×) or greater thrombocytopenia ([3]; individual model estimates, first two courses, 31 individuals): three
- steady state apparent oral clearance ([4]; capsule and liquid formulations): 40.4 (21.1–102.0) L/h/m^2
- half-life [4]: 27.9 (4.5–86.8) hours
- apparent oral clearance ([5]; Courlet, 45 women with metastatic breast cancer, two-compartment model): 67 L/h
- apparent oral clearance ([5]; Courlet, 45 women with metastatic breast cancer): 39 L/h/m^2
- apparent oral clearance ([5]; Royer, adults, 124 patients): 34 L/h/m^2
- apparent oral clearance ([5]; Royer, adults, therapeutic drug monitoring data, 124 patients): 58 L/h
- apparent oral clearance ([5]; adults, 143 patients): 34 L/h/m^2
- apparent oral clearance ([5]; adults, therapeutic drug monitoring data, 143 patients): 57 L/h
- increase of apparent oral clearance ([5]; taken under fasting conditions along with concomitant proton pump inhibitors): 56%
